We go through 1 molecule from article PMC6095626, “Screening of the Pathogen Box for inhibitors with dual efficacy against Giardia lamblia and Cryptosporidium parvum” (PLoS Neglected Tropical Diseases, 2018).

Each structure is given as a SMILES string. Like-named read-outs stand apart in the source and are kept apart here. Bounds are passed on as bounds.

Data set [1] has as its system HepG2 cells. Briefly: Cytotoxicity against HepG2 cells, AlamarBlue viability assay, 48 hours. The data set is classed as cell-based, human. Particulars: read-out: HepG2 CC50 (this study). The source says:
Mammalian cell cytotoxicity assay data performed on HepG2 (human hepatocellular carcinoma) cells and described as CC20 or CC50 values are provided in supporting documentation that accompanied the Pathogen Box for approximately three quarters of the 400 compounds. However, no details of the assay conditions or parameters were provided. In this study, selected compounds were further tested for cytotoxicity against HepG2 cells as previously described. Briefly, cells were exposed to two-fold serial dilutions of compounds for 48 hours and cytotoxicity was assessed using the AlamarBlue® viability assay (Thermo Fisher Scientific, Waltham, MA). Each dilution was assayed in quadruplicate and concentrations causing 50% growth inhibition (CC50) were calculated by non-linear regression using GraphPad Prism 7 software (GraphPad Software, San Diego, CA).

Data set [2] concerns HepG2 cells. Particulars: ref Pathogen_Box_Activity_Biological_Data_ Structure & Smiles (https://www.pathogenbox.org/about-pathogen-box/composition); read-out: HepG2 CC50 (literature values); cited from earlier work.
Data set [3] concerns C. parvum (UGA1 Nluc expressing strain in HCT-8 cells). Briefly: microbe, parasite or virus in culture. The format is cell-based, Cryptosporidium parvum. Particulars: initial Pathogen Box screen, single concentration 10 µM, inhibition compared to DMSO wells. Summed up:
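HCT-8 monolayers grown 48 h to 90–100% confluence, treated with compound at 10 μM or serial dilutions, then infected with bleach-treated UGA1 Nluc C. parvum oocysts.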

For data set [4], the system named is G. lamblia trophozoites (luciferase expressing, WBC6). In words: microbe, parasite or virus in culture. The data set is classed as cell-based, Giardia lamblia. Summed up: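 Luciferase-expressing WBC6 trophozoites plated at 250,000 cells/mL, compounds added 1:1, incubated anaerobically (GasPak bags) at 37 °C for 24 h; viability read by bioluminescence, with duplicate plates counted on a MOXI Z cell counter. Metronidazole control serially diluted 1:2 from 40 μM.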

The test system of data set [5] is HCT-8 host cells. In words: Toxicity to HCT-8 host cells seen in the C. parvum assay. Particulars: no reliable C. parvum EC50 could be determined. The data set is classed as cell-based. The protocol: Growth inhibition and EC50 determination assays were performed using UGA1 Nluc expressing C. parvum strain in HCT-8 cells (ATCC^©, Manassas, VA) as previously described. HCT-8 cells were inoculated onto 96-well plates and allowed to grow for 48 hours to 90–100% confluence and then treated with single concentration (10 μM) or serially diluted compounds prior to oocyst infection. C. parvum oocysts were incubated for 10 minutes in 10% bleach at room temperature and then washed with DPBS. One thousand oocysts per well were applied to the 96 well plates with RPMI-1640 medium supplemented with 10% horse serum and 1% penicillin/streptomycin at the same time as compound addition and incubated for 48 hours. The cell monolayers were lysed for 1 hour before adding Nano-Glo® luciferase reagent (Promega, Madison, WI), and measuring relative luminescence units (RLU) in an EnVision Plate Reader (Perkin Elmer, Waltham, MA). Several parameters, including reproducibility and reliability, were previously evaluated to optimize this assay for low and high-throughput (HTP) screening of small molecule compounds against C. parvum. EC50 values were calculated using Prism 7 software (GraphPad Software, San Diego, CA).

Consider `O=C(Nc1ccc(C(F)(F)F)c(C(F)(F)F)c1)c1cc(Cl)ccc1O` [MMV687807], for which the values for the 50% cytotoxic concentration (CC50) in data set [1] and in data set [2] were less than 5000 nM and 700 nM, respectively. Moreover, in data set [3], the “Crypto (10 uM) Mean % inhibition” value is 90%. The “Giardia (16 uM) Mean % inhibition” value in data set [4] (initial Pathogen Box screen, single concentration 16 µM, inhibition compared to DMSO wells) came out at 97%. In addition, in data set [4] (luciferase expressing G. lamblia trophozoites, 24 hours, D-luciferin bioluminescence read-out, read-out: G. lamblia EC50), the EC50 – broadly, the concentration at which the effect is half-maximal – worked out at 510 ± 60 nM. For the same molecule, the “Toxicity to HCT-8 host cells in the C. parvum assay” value in data set [5] is listed as “too toxic to the HCT-8 host cells”.
